Measurements: ChEMBL document CHEMBL6083184, “Small molecule agents against alopecia: Potential targets and related pathways” (Eur J Med Chem, 2024)

Assays:
[1] = molecular target: Mothers against decapentaplegic homolog 2 (Homo sapiens, UniProt Q15796); assay: Inhibition of SMAD2 (unknown origin)
[2] = Inhibition of MPC (unknown origin); design: species or system Homo sapiens

Mothers against decapentaplegic homolog 2, sequence (Q15796 whole entry): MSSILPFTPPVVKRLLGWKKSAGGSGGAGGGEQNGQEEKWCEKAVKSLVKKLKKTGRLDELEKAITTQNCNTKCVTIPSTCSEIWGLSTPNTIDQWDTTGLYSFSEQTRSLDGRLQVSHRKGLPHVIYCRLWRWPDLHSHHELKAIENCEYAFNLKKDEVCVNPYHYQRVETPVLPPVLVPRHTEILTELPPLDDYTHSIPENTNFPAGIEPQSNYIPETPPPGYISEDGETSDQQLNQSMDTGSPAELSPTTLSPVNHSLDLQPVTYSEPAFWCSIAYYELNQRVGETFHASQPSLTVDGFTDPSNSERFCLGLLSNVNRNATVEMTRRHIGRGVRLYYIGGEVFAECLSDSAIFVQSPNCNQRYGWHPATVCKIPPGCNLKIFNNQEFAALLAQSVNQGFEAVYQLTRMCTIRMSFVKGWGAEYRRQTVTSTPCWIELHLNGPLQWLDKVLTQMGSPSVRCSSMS

Row | SMILES | IC50 [1] [nM] | IC50 [2] [nM]
1 | Cc1csc(-c2nc[nH]c2-c2ccc3ncsc3c2)n1 | 8.7 | 
2 | N#C/C(=C\c1cn(-c2ccccc2)c2ccccc12)C(=O)O |  | 16.6
